Converted amounts (≈) assume the structure as drawn.
Key:
[1] = target: Cytochrome P450 2C19 (Homo sapiens, UniProt P33261); test: Inhibition of CYP2C19 in human liver microsomes using mephenytoin as substrate after 15 mins by LC/MS/MS analysis
[2] = AUC (0 to t) in Sprague-Dawley rat at 2 mg/kg, iv administered as cassette dosing; assay type: ADME, organism-based; design: dose 2 mg/kg, route intravenous; details: plasma
[3] = Elimination half life in Sprague-Dawley rat at 2 mg/kg, iv administered as cassette dosing; assay type: ADME, organism-based; design: dose 2 mg/kg, route intravenous; details: in vivo, read-out: beta t1/2 (converted)
[4] = target: Cytochrome P450 2D6 (Homo sapiens, UniProt P10635); test: Inhibition of CYP2D6 in human liver microsomes using dextromethorphan as substrate after 15 mins by LC/MS/MS analysis
Cytochrome P450 2D6, sequence (P10635 whole entry): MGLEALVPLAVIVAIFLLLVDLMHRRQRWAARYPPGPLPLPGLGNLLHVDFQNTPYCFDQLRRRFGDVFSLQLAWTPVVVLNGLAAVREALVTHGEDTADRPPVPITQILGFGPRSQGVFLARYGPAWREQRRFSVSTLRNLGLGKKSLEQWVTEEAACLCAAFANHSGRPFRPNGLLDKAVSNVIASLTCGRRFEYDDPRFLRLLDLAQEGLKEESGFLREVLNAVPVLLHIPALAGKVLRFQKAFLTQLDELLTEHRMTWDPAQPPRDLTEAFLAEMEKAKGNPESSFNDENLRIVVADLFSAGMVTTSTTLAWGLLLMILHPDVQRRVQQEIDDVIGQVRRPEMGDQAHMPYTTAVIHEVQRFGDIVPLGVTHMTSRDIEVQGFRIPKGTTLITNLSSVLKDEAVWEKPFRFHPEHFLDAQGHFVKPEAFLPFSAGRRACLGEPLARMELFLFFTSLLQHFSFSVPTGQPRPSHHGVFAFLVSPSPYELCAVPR

[5] = Clearance in Sprague-Dawley rat at 2 mg/kg, iv administered as cassette dosing; assay type: ADME, organism-based; design: dose 2 mg/kg, route intravenous; details: in vivo
[6] = Mean residence time in Sprague-Dawley rat at 2 mg/kg, iv administered as cassette dosing; assay type: ADME, organism-based; design: dose 2 mg/kg, route intravenous; details: in vivo
[7] = target: T1, Cytochrome P450 3A4 (Homo sapiens, UniProt P08684); test: Inhibition of CYP3A4 in human liver microsomes using testosterone as substrate after 15 mins by LC/MS/MS analysis
T1 sequence (P08684 whole entry): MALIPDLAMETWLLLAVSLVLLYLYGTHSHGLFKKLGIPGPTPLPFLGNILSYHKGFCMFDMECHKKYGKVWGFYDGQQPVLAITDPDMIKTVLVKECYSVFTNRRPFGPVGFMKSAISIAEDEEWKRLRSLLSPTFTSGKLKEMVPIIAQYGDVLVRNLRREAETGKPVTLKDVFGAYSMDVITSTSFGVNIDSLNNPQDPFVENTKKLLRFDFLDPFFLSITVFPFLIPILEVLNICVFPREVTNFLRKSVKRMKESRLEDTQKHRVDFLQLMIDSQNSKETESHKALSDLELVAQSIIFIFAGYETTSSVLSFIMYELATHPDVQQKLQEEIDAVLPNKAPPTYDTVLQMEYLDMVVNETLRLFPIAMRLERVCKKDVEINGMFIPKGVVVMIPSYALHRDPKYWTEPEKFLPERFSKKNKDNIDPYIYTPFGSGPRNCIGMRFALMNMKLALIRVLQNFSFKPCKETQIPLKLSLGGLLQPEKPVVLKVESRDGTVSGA

[8] = target: T2, Cytochrome P450 1A2 (Homo sapiens, UniProt P05177); test: Inhibition of CYP1A2 in human liver microsomes using phenacetin as substrate after 15 mins by LC/MS/MS analysis
T2 sequence (P05177 whole entry): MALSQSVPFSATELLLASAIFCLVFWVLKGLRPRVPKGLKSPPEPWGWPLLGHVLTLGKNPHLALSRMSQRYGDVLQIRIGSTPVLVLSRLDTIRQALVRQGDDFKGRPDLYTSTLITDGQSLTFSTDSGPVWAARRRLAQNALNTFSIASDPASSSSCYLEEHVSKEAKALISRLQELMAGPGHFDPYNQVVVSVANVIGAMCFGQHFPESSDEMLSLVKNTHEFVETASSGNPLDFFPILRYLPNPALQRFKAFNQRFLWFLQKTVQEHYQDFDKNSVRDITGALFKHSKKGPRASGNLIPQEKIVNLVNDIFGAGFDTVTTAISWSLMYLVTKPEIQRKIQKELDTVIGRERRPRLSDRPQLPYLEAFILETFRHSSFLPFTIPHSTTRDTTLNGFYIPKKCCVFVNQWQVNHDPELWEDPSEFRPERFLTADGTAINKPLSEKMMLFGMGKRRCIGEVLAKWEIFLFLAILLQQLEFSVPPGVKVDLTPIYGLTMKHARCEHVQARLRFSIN

[9] = Volume of distribution at steady state in Sprague-Dawley rat at 2 mg/kg, iv administered as cassette dosing; assay type: ADME, organism-based; design: dose 2 mg/kg, route intravenous; details: in vivo, read-out: Vdss
[10] = target: Cytochrome P450 2C9 (Homo sapiens, UniProt P11712); test: Inhibition of CYP2C9 in human liver microsomes using tolbutamide as substrate after 15 mins by LC/MS/MS analysis
Cytochrome P450 2C9, sequence (P11712 whole entry): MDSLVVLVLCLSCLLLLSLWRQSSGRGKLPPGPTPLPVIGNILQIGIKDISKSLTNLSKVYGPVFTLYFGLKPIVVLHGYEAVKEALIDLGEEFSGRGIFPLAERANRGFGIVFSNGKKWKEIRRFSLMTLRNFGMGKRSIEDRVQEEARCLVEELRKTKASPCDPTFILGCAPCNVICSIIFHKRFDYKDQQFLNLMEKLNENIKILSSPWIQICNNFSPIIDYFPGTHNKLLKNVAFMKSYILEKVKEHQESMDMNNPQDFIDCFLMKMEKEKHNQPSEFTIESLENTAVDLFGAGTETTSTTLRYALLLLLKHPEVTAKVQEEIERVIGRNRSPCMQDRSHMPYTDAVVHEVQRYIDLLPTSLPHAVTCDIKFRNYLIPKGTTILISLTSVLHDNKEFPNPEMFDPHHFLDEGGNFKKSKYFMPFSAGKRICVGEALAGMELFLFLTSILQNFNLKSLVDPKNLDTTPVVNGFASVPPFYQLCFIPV

[11] = system: Staphylococcus aureus; test: Antibacterial activity against of methicillin-sensitive Staphylococcus aureus ATCC 19636 infected in iv dosed mouse administered 1 hr after infection measured after 48 hrs; assay type: functional
[12] = target: T1, Cytochrome P450 3A4; test: Inhibition of CYP3A4 in human liver microsomes using midazolam as substrate after 15 mins by LC/MS/MS analysis
[13] = system: Staphylococcus aureus; test: Antibacterial activity against of methicillin-sensitive Staphylococcus aureus ATCC 19636 infected in iv dosed mouse assessed as host survival administered 1 hr after infection measured after 48 hrs; assay type: functional; details: ATCC 19636, iv
[14] = system: Staphylococcus epidermidis; test: Antibacterial activity against methicillin-sensitive Staphylococcus epidermidis after 16 hrs by agar dilution method; assay type: functional
[15] = system: Staphylococcus aureus; test: Antibacterial activity against Staphylococcus aureus […] after 16 hrs by agar dilution method; assay type: functional
[16] = system: Staphylococcus epidermidis; test: Antibacterial activity against methicillin-resistant Staphylococcus epidermidis after 16 hrs by agar dilution method; assay type: functional
[17] = system: Staphylococcus aureus; test: Antibacterial activity against methicillin-resistant Staphylococcus aureus after 16 hrs by agar dilution method; assay type: functional
[18] = system: Staphylococcus aureus; test: Antibacterial activity against methicillin-sensitive Staphylococcus aureus after 16 hrs by agar dilution method; assay type: functional
[19] = system: Streptococcus pneumoniae; test: Antibacterial activity against penicillin-resistant Streptococcus pneumoniae after 16 hrs by agar dilution method; assay type: functional
[20] = Aqueous solubility of the compound in water at pH 7.4; details: buffer
[21] = AUC (0 to t) in Sprague-Dawley rat at 10 mg/kg, iv; assay type: ADME, organism-based; design: dose 10 mg/kg, route intravenous; details: plasma
[22] = Clearance in Sprague-Dawley rat at 10 mg/kg, iv; assay type: ADME, organism-based; design: dose 10 mg/kg, route intravenous; details: in vivo
[23] = Volume of distribution at steady state in Sprague-Dawley rat at 10 mg/kg, iv; assay type: ADME, organism-based; design: dose 10 mg/kg, route intravenous; details: in vivo, read-out: Vdss
[24] = Mean residence time in Sprague-Dawley rat at 10 mg/kg, iv; assay type: ADME, organism-based; design: dose 10 mg/kg, route intravenous; details: in vivo
[25] = Elimination half life in Sprague-Dawley rat at 10 mg/kg, iv; assay type: ADME, organism-based; design: dose 10 mg/kg, route intravenous; details: in vivo, read-out: beta t1/2 (converted)

Cytochrome P450 2C19, sequence (P33261 whole entry): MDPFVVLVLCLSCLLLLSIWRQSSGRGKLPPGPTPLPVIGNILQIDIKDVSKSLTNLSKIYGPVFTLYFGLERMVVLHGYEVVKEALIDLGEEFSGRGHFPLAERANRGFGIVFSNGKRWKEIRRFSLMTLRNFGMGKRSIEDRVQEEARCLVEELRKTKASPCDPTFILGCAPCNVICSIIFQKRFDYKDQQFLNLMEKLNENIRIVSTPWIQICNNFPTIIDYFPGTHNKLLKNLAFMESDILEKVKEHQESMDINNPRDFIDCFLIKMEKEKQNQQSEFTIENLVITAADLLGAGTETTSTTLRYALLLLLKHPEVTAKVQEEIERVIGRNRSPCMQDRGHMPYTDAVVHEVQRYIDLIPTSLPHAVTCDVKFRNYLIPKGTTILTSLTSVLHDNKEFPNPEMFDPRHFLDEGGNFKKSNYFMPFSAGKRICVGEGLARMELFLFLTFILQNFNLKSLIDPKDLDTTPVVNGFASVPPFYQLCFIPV

Compound | IC50 [1] | AUC(0-t) [2] | half-life [3] | IC50 [4] | clearance [5] | MRT [6] | IC50 [7] | IC50 [8] | Vd [9] | IC50 [10] | IC50 [12] | MIC [14] | MIC [15] | MIC [16] | MIC [17] | MIC [18] | MIC [19] | also measured
C=C[C@]1(C)C[C@@H](OC(=O)CS[C@@H]2CC[C@@H](N)C[C@H]2O)[C@]2(C)[C@H](C)CC[C@]3(CCC(=O)[C@H]32)[C@@H](C)[C@@H]1O [LEFAMULIN] | > 25 µM | 275 ng·h/mL | 264 min | > 25 µM | 122 mL/min/kg | 228 min | 4.43 µM | > 25 µM | 27.6 L/kg | > 25 µM | 4.65 µM |  |  |  |  |  |  | MIC [11]: 0.031 µg/mL (≈ 0.0611 µM); ED50 [13]: 3.08 mg/kg
C=C[C@]1(C)C[C@@H](OC(=O)CSc2cncc(NC(=O)CN)c2)[C@]2(C)[C@H](C)CC[C@]3(CCC(=O)[C@H]32)[C@@H](C)[C@@H]1O |  | 41 ng·h/mL | 20.4 min |  | 828 mL/min/kg | 16.8 min |  |  | 13.8 L/kg |  |  | 0.125 µg/mL (≈ 0.23 µM) | 0.063 µg/mL (≈ 0.116 µM) | 0.125 µg/mL (≈ 0.23 µM) | 0.063 µg/mL (≈ 0.116 µM) | 0.063 µg/mL (≈ 0.116 µM) | 0.063 µg/mL (≈ 0.116 µM) | 
C=C[C@]1(C)C[C@@H](OC(=O)CSc2cncc(N)c2)[C@]2(C)[C@H](C)CC[C@]3(CCC(=O)[C@H]32)[C@@H](C)[C@@H]1O | 15.5 µM |  |  | 17.1 µM |  |  | 0.0444 µM | > 25 µM |  | > 25 µM | 0.135 µM | 0.031 µg/mL (≈ 0.0637 µM) | 0.031 µg/mL (≈ 0.0637 µM) | 0.031 µg/mL (≈ 0.0637 µM) | 0.031 µg/mL (≈ 0.0637 µM) | 0.063 µg/mL (≈ 0.129 µM) | 0.063 µg/mL (≈ 0.129 µM) | solubility [20]: Insoluble
C=C[C@]1(C)C[C@@H](OC(=O)CSc2cncc(NC(=O)CN3CCCC(O)C3)c2)[C@]2(C)[C@H](C)CC[C@]3(CCC(=O)[C@H]32)[C@@H](C)[C@@H]1O (stereo partly specified) | 12.4 µM | 522 ng·h/mL | 40.2 min | > 25 µM | 65 mL/min/kg | 28.8 min | 1.24 µM | > 25 µM | 1.9 L/kg | > 25 µM | 1.08 µM | 0.063 µg/mL (≈ 0.1 µM) | 0.063 µg/mL (≈ 0.1 µM) | 0.063 µg/mL (≈ 0.1 µM) | 0.063 µg/mL (≈ 0.1 µM) | 0.063 µg/mL (≈ 0.1 µM) | 0.063 µg/mL (≈ 0.1 µM) | 
C=C[C@]1(C)C[C@@H](OC(=O)CSc2cncc(CO)c2)[C@]2(C)[C@H](C)CC[C@]3(CCC(=O)[C@H]32)[C@@H](C)[C@@H]1O |  |  |  |  |  |  |  |  |  |  |  | 0.031 µg/mL (≈ 0.0618 µM) | 0.031 µg/mL (≈ 0.0618 µM) | 0.031 µg/mL (≈ 0.0618 µM) | 0.031 µg/mL (≈ 0.0618 µM) | 0.063 µg/mL (≈ 0.126 µM) | 0.063 µg/mL (≈ 0.126 µM) | AUC(0-t) [21]: 3480 ng·h/mL; clearance [22]: 48 mL/min/kg; Vd [23]: 1.56 L/kg; MRT [24]: 32.4 min; half-life [25]: 360 min
C=C[C@]1(C)C[C@@H](OC(=O)CSc2ccccn2)[C@]2(C)[C@H](C)CC[C@]3(CCC(=O)[C@H]32)[C@@H](C)[C@@H]1O | > 10 µM |  |  | > 10 µM |  |  | 1.36 µM | > 10 µM |  | > 10 µM | 1.25 µM | 0.031 µg/mL (≈ 0.0657 µM) | 0.063 µg/mL (≈ 0.134 µM) | 0.031 µg/mL (≈ 0.0657 µM) | 0.031 µg/mL (≈ 0.0657 µM) | 0.031 µg/mL (≈ 0.0657 µM) | 0.031 µg/mL (≈ 0.0657 µM) | 
C=C[C@]1(C)C[C@@H](OC(=O)CS[C@@H]2C[C@H]3CC[C@@H](C2)N3C)[C@]2(C)[C@H](C)CC[C@]3(CCC(=O)[C@H]32)[C@@H](C)[C@@H]1O [RETAPAMULIN] |  |  |  |  |  |  |  |  |  |  |  | 0.063 µg/mL (≈ 0.122 µM) | 0.125 µg/mL (≈ 0.241 µM) | 0.063 µg/mL (≈ 0.122 µM) | 0.063 µg/mL (≈ 0.122 µM) | 0.063 µg/mL (≈ 0.122 µM) | 0.063 µg/mL (≈ 0.122 µM) | 
C=C[C@]1(C)C[C@@H](OC(=O)CSc2cncc(O)c2)[C@]2(C)[C@H](C)CC[C@]3(CCC(=O)[C@H]32)[C@@H](C)[C@@H]1O |  |  |  |  |  |  |  |  |  |  |  | 0.063 µg/mL (≈ 0.129 µM) | 0.125 µg/mL (≈ 0.256 µM) | 0.063 µg/mL (≈ 0.129 µM) | 0.063 µg/mL (≈ 0.129 µM) | 0.063 µg/mL (≈ 0.129 µM) | 0.063 µg/mL (≈ 0.129 µM) | 
C=C[C@]1(C)C[C@@H](OC(=O)CSc2ccc(N)cn2)[C@]2(C)[C@H](C)CC[C@]3(CCC(=O)[C@H]32)[C@@H](C)[C@@H]1O |  |  |  |  |  |  |  |  |  |  |  | 0.063 µg/mL (≈ 0.129 µM) | 0.125 µg/mL (≈ 0.257 µM) | 0.063 µg/mL (≈ 0.129 µM) | 0.063 µg/mL (≈ 0.129 µM) | 0.063 µg/mL (≈ 0.129 µM) | 0.063 µg/mL (≈ 0.129 µM) | 
C=C[C@]1(C)C[C@@H](OC(=O)CSc2cncc(NC(=O)CN3CCCC(CO)C3)c2)[C@]2(C)[C@H](C)CC[C@]3(CCC(=O)[C@H]32)[C@@H](C)[C@@H]1O (stereo partly specified) |  |  |  |  |  |  |  |  |  |  |  | 0.063 µg/mL (≈ 0.0981 µM) | 0.063 µg/mL (≈ 0.0981 µM) | 0.063 µg/mL (≈ 0.0981 µM) | 0.063 µg/mL (≈ 0.0981 µM) | 0.063 µg/mL (≈ 0.0981 µM) | 0.063 µg/mL (≈ 0.0981 µM) | 

Reference: ChEMBL document CHEMBL3286253, “Design, synthesis, and structure-activity relationship studies of novel thioether pleuromutilin derivatives as potent antibacterial agents” (J Med Chem, 2014)
